Results from PubChem BioAssay (NCI).
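Values below derive from 48-hour exposures of cells grown in 96-well plates, with endpoints linearly interpolated between the two concentrations bracketing the appropriate inhibition level. TGI marks complete inhibition of growth.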

How the values were obtained:
Test in all cases: NCI tumour cell line growth inhibition, 48 h
[1] = tested on: SF-268 CNS
[2] = tested on: M19-MEL melanoma
[3] = tested on: OVCAR-5 ovarian
[4] = tested on: HOP-92 NSCLC
[5] = tested on: DMS 114 small cell lung
[6] = tested on: OVCAR-3 ovarian
[7] = tested on: HCC-2998 colon
[8] = tested on: SW-620 colon
[9] = tested on: COLO 205 colon
[10] = tested on: SF-295 CNS
[11] = tested on: SNB-19 CNS
[12] = tested on: K-562 leukemia
[13] = tested on: SK-MEL-2 melanoma
[14] = tested on: NCI-H522 lung
[15] = tested on: MALME-3M melanoma
[16] = tested on: UO-31 renal
[17] = tested on: EKVX NSCLC
[18] = tested on: CCRF-CEM leukemia
[19] = tested on: NCI-H460 lung
[20] = tested on: ACHN renal
[21] = tested on: SNB-75 CNS
[22] = tested on: SK-OV-3 ovarian
[23] = tested on: SK-MEL-28 melanoma
[24] = tested on: TK-10 renal
[25] = tested on: KM12 colon
[26] = tested on: MOLT-4 leukemia
[27] = tested on: HT29 colon
[28] = tested on: SK-MEL-5 melanoma
[29] = tested on: KM20L2 colon
[30] = tested on: DMS 273 small cell lung
[31] = tested on: UACC-62 melanoma
[32] = tested on: HCT-116 colon
[33] = tested on: NCI-H226 lung
[34] = tested on: RXF 393 renal
[35] = tested on: HL-60(TB) leukemia
[36] = tested on: LOX IMVI melanoma
[37] = tested on: IGROV1 ovarian
[38] = tested on: HOP-18 NSCLC
[39] = tested on: RXF-631 renal
[40] = tested on: SF-539 CNS
[41] = tested on: CAKI-1 renal
[42] = tested on: A549 NSCLC
[43] = tested on: HCT-15 colon
[44] = tested on: DLD-1 colon
[45] = tested on: 786-0 renal
[46] = tested on: M14 melanoma
[47] = tested on: A498 renal

Measured: TGI

O=C(CC(=O)C(=O)Nc1ccccc1)CC(c1ccccc1)c1c(O)c2ccccc2oc1=O (configuration not stated)
> 100 µM: all assays above
